In patent US20260285850A1, “SUBSTITUTED OXAZOLIDINONES AND IMIDAZOLINONES AS HERBICIDES” (FMC CORPORATION, priority 2023, published 2026):

Columns and labels:
Format in all cases: in vivo
kochia (Bassia scoparia) [1] = experiment: Test A postemergence application, visual injury rating 0-100; conditions: Postemergence, 10 days; for Kochia plant response rating (0 to 100 scale): 0 is no effect, 100 is complete control
Method in brief: (§1)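 Directed preemergence spray onto seeded soil or postemergence spray onto 2-10 cm plants (loam plus sand); compound carried in surfactant-containing non-phytotoxic solvent. Injury rated by eye after 10 d greenhouse growth; 0 = no effect, 100 = complete control.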

[2] = system: foxtail, giant (giant foxtail, Setaria faberi); experiment: as above; conditions: 10 days; for Foxtail, Giant plant response rating (0 to 100 scale): 0 is no effect, 100 is complete control
Method in brief: as §1

soybean (Glycine max) [3] = experiment: as above; conditions: Postemergence, 10 days, 0 is no effect, 100 is complete control
Method in brief: as §1

[4] = system: goosegrass (Eleusine indica); experiment: as above; conditions: 10 days; for Goosegrass plant response rating (0 to 100 scale): 0 is no effect, 100 is complete control
Method in brief: as §1

corn (Zea mays) [5] = experiment: as above; conditions: Postemergence, 10 days, 0 is no effect, 100 is complete control
Method in brief: as §1

[6] = system: palmer (palmer amaranth, palmer pigweed, Amaranthus palmeri); experiment: as above; conditions: Postemergence, 10 days; for Amaranth, Palmer / Pigweed, Palmer plant response rating (0 to 100 scale): 0 is no effect, 100 is complete control
Method in brief: as §1

[7] = system: oat, wild (wild oat, Avena fatua); experiment: as above; conditions: Postemergence, 10 days, 0 is no effect, 100 is complete control
Method in brief: as §1

[8] = system: wheat (Triticum aestivum); experiment: as above; conditions: Postemergence, 10 days, 0 is no effect, 100 is complete control
Method in brief: as §1

[9] = system: ryegrass, Italian (italian ryegrass, Lolium multiflorum); experiment: as above; conditions: Postemergence, 10 days; for Ryegrass, Italian plant response rating (0 to 100 scale): 0 is no effect, 100 is complete control
Method in brief: as §1

[10] = system: galium (catchweed bedstraw, Galium aparine); experiment: as above; conditions: Postemergence, 10 days; for Galium plant response rating (0 to 100 scale): 0 is no effect, 100 is complete control
Method in brief: as §1

[11] = system: ragweed (common ragweed, Ambrosia artemisiifolia); experiment: as above; conditions: Postemergence, 10 days; for Ragweed plant response rating (0 to 100 scale): 0 is no effect, 100 is complete control
Method in brief: as §1

[12] = system: horseweed (Erigeron canadensis); experiment: as above; conditions: Postemergence, 10 days; for Horseweed plant response rating (0 to 100 scale): 0 is no effect, 100 is complete control
Method in brief: as §1

[13] = system: blackgrass (Alopecurus myosuroides); experiment: as above; conditions: Postemergence, 10 days; for Blackgrass plant response rating (0 to 100 scale): 0 is no effect, 100 is complete control
Method in brief: as §1

kochia (Bassia scoparia) [14] = experiment: Test A preemergence soil spray, visual injury rating 0-100; conditions: 10 days, 0 = no effect, 100 = complete control
Method in brief: as §1

[15] = system: foxtail, giant (giant foxtail, Setaria faberi); experiment: as above; conditions: 10 days, 0 = no effect, 100 = complete control
Method in brief: as §1

soybean (Glycine max) [16] = experiment: as above; conditions: 10 days, 0 = no effect, 100 = complete control
Method in brief: as §1

[17] = system: goosegrass (Eleusine indica); experiment: as above; conditions: 10 days, 0 = no effect, 100 = complete control
Method in brief: as §1

corn (Zea mays) [18] = experiment: as above; conditions: 10 days, 0 = no effect, 100 = complete control
Method in brief: as §1

[19] = system: palmer (palmer amaranth, palmer pigweed, Amaranthus palmeri); experiment: as above; conditions: 10 days, 0 = no effect, 100 = complete control
Method in brief: as §1

[20] = system: oat, wild (wild oat, Avena fatua); experiment: as above; conditions: 10 days, 0 = no effect, 100 = complete control
Method in brief: as §1

[21] = system: wheat (Triticum aestivum); experiment: as above; conditions: 10 days, 0 = no effect, 100 = complete control
Method in brief: as §1

[22] = system: ryegrass, Italian (italian ryegrass, Lolium multiflorum); experiment: as above; conditions: 10 days, 0 = no effect, 100 = complete control
Method in brief: as §1

[23] = system: ragweed (common ragweed, Ambrosia artemisiifolia); experiment: as above; conditions: 10 days, 0 = no effect, 100 = complete control
Method in brief: as §1

[24] = system: blackgrass (Alopecurus myosuroides); experiment: as above; conditions: 10 days, 0 = no effect, 100 = complete control
Method in brief: as §1

rice (Oryza sativa) = experiment: Test B flooded paddy test, visual plant response rating 0-100; conditions: 250 g ai/ha, Flood, applied to paddy water, evaluated after 13 days
Method in brief: (§2)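 Greenhouse, 13 d. Seedlings at 2-leaf stage, pots flooded to 3 cm, compound delivered into floodwater, water level held constant. Evaluated visually relative to controls.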

[25] = system: sedge, umbrella (small-flower umbrella sedge, Cyperus difformis); experiment: as above; conditions: 250 g ai/ha, Flood, applied to paddy water, evaluated after 13 days
Method in brief: as §2

[26] = system: barnyardgrass (Echinochloa crusgalli); experiment: as above; conditions: 250 g ai/ha, Flood, applied to paddy water, evaluated after 13 days
Method in brief: as §2

[27] = system: ducksalad (Heteranthera limosa); experiment: as above; conditions: 250 g ai/ha, Flood, applied to paddy water, evaluated after 13 days
Method in brief: as §2

CONC(=O)C1C=CC(NC(=O)C2(C)CN(c3cc(F)cc(F)c3)C(=O)O2)C1 (centres unmarked) [Compound 25]
90: Kochia plant response rating (0 to 100 scale) (kochia (Bassia scoparia) [1]; 500 g ai/ha) | Foxtail, Giant plant response rating (0 to 100 scale) ([2]; 125 g ai/ha) | Foxtail, Giant plant response rating (0 to 100 scale) ([2]; 500 g ai/ha) | Goosegrass plant response rating (0 to 100 scale) ([4]; 125 g ai/ha) | Goosegrass plant response rating (0 to 100 scale) ([4]; 500 g ai/ha) | Amaranth, Palmer / Pigweed, Palmer plant response rating (0 to 100 scale) ([6]; 125 g ai/ha) | Amaranth, Palmer / Pigweed, Palmer plant response rating (0 to 100 scale) ([6]; 500 g ai/ha) | Oat, Wild plant response rating (0 to 100 scale) ([7]; 125 g ai/ha) | Blackgrass plant response rating (0 to 100 scale) ([13]; 500 g ai/ha) | Kochia plant response rating (0 to 100 scale) (kochia (Bassia scoparia) [14]; 500 g ai/ha) | Foxtail, Giant plant response rating (0 to 100 scale) ([15]; 500 g ai/ha) | Corn plant response rating (0 to 100 scale) (corn (Zea mays) [18]; 500 g ai/ha) | Oat, Wild plant response rating (0 to 100 scale) ([20]; 500 g ai/ha) | Ryegrass, Italian plant response rating (0 to 100 scale) ([22]; 500 g ai/ha) | Blackgrass plant response rating (0 to 100 scale) ([24]; 500 g ai/ha)
50: Corn plant response rating (0 to 100 scale) (corn (Zea mays) [18]; 125 g ai/ha)
100: Corn plant response rating (0 to 100 scale) (corn (Zea mays) [5]; 125 g ai/ha) | Corn plant response rating (0 to 100 scale) (corn (Zea mays) [5]; 500 g ai/ha) | Oat, Wild plant response rating (0 to 100 scale) ([7]; 500 g ai/ha) | Goosegrass plant response rating (0 to 100 scale) ([17]; 500 g ai/ha) | Wheat plant response rating (0 to 100 scale) ([21]; 500 g ai/ha)
60: Ryegrass, Italian plant response rating (0 to 100 scale) ([9]; 125 g ai/ha) | Ryegrass, Italian plant response rating (0 to 100 scale) ([9]; 500 g ai/ha) | Ragweed plant response rating (0 to 100 scale) ([11]; 125 g ai/ha) | Horseweed plant response rating (0 to 100 scale) ([12]; 125 g ai/ha) | Wheat plant response rating (0 to 100 scale) ([21]; 125 g ai/ha) | Ryegrass, Italian plant response rating (0 to 100 scale) ([22]; 125 g ai/ha)
20: Foxtail, Giant plant response rating (0 to 100 scale) ([15]; 125 g ai/ha)
80: Kochia plant response rating (0 to 100 scale) (kochia (Bassia scoparia) [1]; 125 g ai/ha) | Soybean plant response rating (0 to 100 scale) (soybean (Glycine max) [3]; 500 g ai/ha) | Wheat plant response rating (0 to 100 scale) ([8]; 125 g ai/ha) | Wheat plant response rating (0 to 100 scale) ([8]; 500 g ai/ha) | Galium plant response rating (0 to 100 scale) ([10]; 125 g ai/ha) | Galium plant response rating (0 to 100 scale) ([10]; 500 g ai/ha) | Ragweed plant response rating (0 to 100 scale) ([11]; 500 g ai/ha) | Horseweed plant response rating (0 to 100 scale) ([12]; 500 g ai/ha) | Blackgrass plant response rating (0 to 100 scale) ([13]; 125 g ai/ha) | Amaranth, Palmer plant response rating (0 to 100 scale) ([19]; 500 g ai/ha) | Oat, Wild plant response rating (0 to 100 scale) ([20]; 125 g ai/ha)
10: Amaranth, Palmer plant response rating (0 to 100 scale) ([19]; 125 g ai/ha)
40: Blackgrass plant response rating (0 to 100 scale) ([24]; 125 g ai/ha)
70: Soybean plant response rating (0 to 100 scale) (soybean (Glycine max) [3]; 125 g ai/ha) | Soybean plant response rating (0 to 100 scale) (soybean (Glycine max) [16]; 500 g ai/ha)
0: Soybean plant response rating (0 to 100 scale) (soybean (Glycine max) [16]; 125 g ai/ha) | Ragweed plant response rating (0 to 100 scale) ([23]; 125 g ai/ha)
30: Kochia plant response rating (0 to 100 scale) (kochia (Bassia scoparia) [14]; 125 g ai/ha) | Goosegrass plant response rating (0 to 100 scale) ([17]; 125 g ai/ha) | Ragweed plant response rating (0 to 100 scale) ([23]; 500 g ai/ha)

CNC(=O)C1C=CC(NC(=O)C2(C)CN(c3cc(F)cc(F)c3)C(=O)O2)C1 (centres unmarked) [Compound 26]
100: Foxtail, Giant plant response rating (0 to 100 scale) ([15]; 1000 g ai/ha) | Goosegrass plant response rating (0 to 100 scale) ([17]; 1000 g ai/ha) | Amaranth, Palmer / Pigweed, Palmer plant response rating (0 to 100 scale) ([19]; 1000 g ai/ha) | Ryegrass, Italian plant response rating (0 to 100 scale) ([22]; 1000 g ai/ha) | Blackgrass plant response rating (0 to 100 scale) ([24]; 1000 g ai/ha)
90: Foxtail, Giant plant response rating ([2]; 1000 g ai/ha, 0 to 100 scale) | Goosegrass plant response rating ([4]; 1000 g ai/ha, 0 to 100 scale) | Amaranth, Palmer plant response rating ([6]; 1000 g ai/ha, 0 to 100 scale) | Blackgrass plant response rating ([13]; 1000 g ai/ha, 0 to 100 scale) | Kochia plant response rating (0 to 100 scale) (kochia (Bassia scoparia) [14]; 1000 g ai/ha) | Ragweed plant response rating (0 to 100 scale) ([23]; 1000 g ai/ha)
45: Plant response rating, Barnyardgrass (0 to 100 scale, 0 is no effect and 100 is complete control) [26]
80: Kochia plant response rating (kochia (Bassia scoparia) [1]; 1000 g ai/ha, 0 to 100 scale)
35: Plant response rating, Rice (0 to 100 scale, 0 is no effect and 100 is complete control) (rice (Oryza sativa))
70: Ryegrass, Italian plant response rating ([9]; 1000 g ai/ha, 0 to 100 scale) | Galium plant response rating ([10]; 1000 g ai/ha, 0 to 100 scale) | Horseweed plant response rating ([12]; 1000 g ai/ha, 0 to 100 scale)
95: Plant response rating, Sedge, Umbrella (0 to 100 scale, 0 is no effect and 100 is complete control) [25] | Plant response rating, Ducksalad (0 to 100 scale, 0 is no effect and 100 is complete control) [27]
50: Ragweed plant response rating ([11]; 1000 g ai/ha, 0 to 100 scale)
